Values of other authors as cited in patent publication US9878046B2, “Adverse side-effects associated with administration of an anti-hyaluronan agent and methods for ameliorating or preventing the side-effects” (Halozyme, Inc., priority 2010, dated 2018).

Legend:
[1] = tested on: B16 melanoma model; conditions: oral administration at 600 mg/kg/d; cited from earlier work
[2] = glucocorticoid, route IV or PO as listed; cited from earlier work

Structure (SMILES)	reduction of metastases [1] [%]	Equivalent Potency [2] [mg]
Cc1cc(=O)oc2cc(O)ccc12 [4-MU, 4-Methylumbelliferone]	64	
C[C@]12CCC(=O)C=C1CC[C@@H]1[C@@H]2[C@@H](O)C[C@@]2(C)[C@H]1CC[C@]2(O)C(=O)CO [Hydrocortisone]		20
C[C@H]1C[C@@H]2[C@H]([C@@H](O)C[C@@]3(C)[C@H]2CC[C@]3(O)C(=O)COC(=O)CCC(=O)O)[C@@]2(C)C=CC(=O)C=C12 [Methylprednisolone sodium succinate]		4
C[C@]12C=CC(=O)C=C1CC[C@@H]1[C@@H]2[C@@H](O)C[C@@]2(C)[C@H]1CC[C@]2(O)C(=O)CO [Prednisolone]		5
